Source: US7579353B2, “Pyridinone derivatives against malaria” (Glaxo Group Limited, priority 2005, dated 2009)
≈ marks a conversion by molar mass, not a printed value. Like-named read-outs stand apart in the source and are kept apart here.

What was measured:
[1] = tested on: Plasmodium falciparum; assay: In vitro anti-malarial activity against Plasmodium falciparum, IC50 assay / [3H]-hypoxanthine incorporation assay; format: cell-based; conditions: Erythrocyte, parasitized red blood cells, 48 hours
Procedure: In Vitro Anti-malarial Activity Against Plasmodium falciparum
IC50 Assay/[^3H]-Hypoxanthine Assay
Plasmodium falciparum strains.
The culture medium comprised RPMI 1640 with 25 mM HEPES, sodium bicarbonate and glutamine (GIBCO™ cat. ref.: 52400), supplemented with 10% of pooled human sera AB (Irvine Scientific, cat. ref.: 5009) and HT supplement (0.15 mM hypoxanthine and 24 μM thymidine), (GIBCO™ cat. ref.: 41065). Human sera were decomplemented 30 min. at 56° C., aliquoted and stored frozen at −20° C. until use in this culture medium.
Red blood cells O+ stock suspensions were prepared from whole blood bags coming from incomplete blood donation, provided by the Spanish Red Cross (<25 days after sampling). This “whole blood” was aliquoted and stored at 4° C.
To prepare red blood cells for the assay, the whole blood was centrifuged and washed 3 times with RPMI without serum. The upper phase, containing white blood cells was removed. The washed red blood cells were kept as a 50% suspension in complete medium. The prepared cells were stored at 4° C. and were employed in the assay at any time up to 4 days after preparation.
Test compounds were dissolved at 2 mg/ml in 100% DMSO on the day of the assay. If necessary, complete dissolution was achieved by gentle heating (the mixture was heated at a temperature <37° C.) and sonication (sonication bath).
For IC50 determinations, 10 serial 2-fold dilutions were prepared in complete medium in the presence of a constant amount of DMSO.
Plasmodium falciparum strains were maintained in complete medium at an hematocrit of 5% in continuous culture using a method adapted from Trager and Jensen (1, 2).
The parasitemia was calculated by counting the percentage of parasitized erythrocytes by optical microscopy. Thin films of blood were made every day from each culture flask, fixed with methanol and stained for 10 min. in Giemsa (Merck, cat ref.: 1.09204) at 10% in buffered water pH 7.2. The glass slides were observed and counted with an optical microscope (Nikon, Eclipse E200) equipped with a 100× immersion oil objective.
The culture was maintained at an hematocrit of 5%, with a daily change of medium and was diluted when parasitemia had reached about 5%.
[^3H] Hypoxanthine incorporation assay was conducted using a method adapted from Desjardins et al. (3). The assays were performed in 96 wells flat bottom microplates.
1. Serial dilutions of the test compounds (50 μl of a 5× solution/well) were deposited in duplicate. Compounds of the invention were tested in this assay. Chloroquine and Atovaquone were used as control compounds for each assay.
3. [^3H]-Hypoxanthine (Amersham Biosciences, cat. ref.: TRK74) was added extemporaneously to the inoculum suspension at a concentration of 1 μCi/ml (equating to […]). 200 μl of the resulting suspension was distributed into each well (other than the control well H12 described below) leading to a final volume of 250 μl per well, at 2% of hematocrit and 0.5% of parasitemia/well.
4. In each plate, 2 columns were reserved for control wells: • Column 11: Positive control wells: PRBCs with 0.2% DMSO—(i) to determine DMSO solvent effect on parasite growth (at a final concentration of 0.2%) and (ii) to compare with cultures treated with test compounds. • Column 12 (comprising wells A12-H12): • A12-D12—Background value wells: Uninfected RBCs—blank control to obtain the background reading from RBCs without parasites. • E12-G12—Solvent effect wells: PRBCs without DMSO—to determine DMSO solvent effect on PRBCs by comparing these wells with column 11 wells. • H12-Non-radioactive well: PRBCs with cold hypoxanthine—(i) to carry out a thin blood film to determine parasitemia value after incubation by microscopy and (ii) to ensure that the parasites have grown properly during the assay. (200 μl of inoculum suspension was prepared as described above (Items 2 and 3) but with non-tritiated hypoxanthine instead of [3H]-hypoxanthine, then added to this well to a final volume of 250 μl). […]

[2] = Compound solubility determination (gross and equilibrium solubility; FaSSIF, FeSSIF, pH 7.4 PBS, pH 1.0 0.1N HCl, pH 4.5 sodium citrate); format: physicochemical; conditions: thermodynamic from solid
Procedure: Compound Solubility Determination
An amount of 3 mg solid compound with LC-MS purity ≧95% was required. This amount was split between 3 different glass vials (1.8 ml volume each), placing 1 mg compound into each one.
Organic solvents of HPLC grade were used. Ultra pure water (Milli-Q grade) was used. Buffers were prepared with ultra pure water and filtered using 0.45μ cameo filters. The compositions of each solvent employed in this assay are described below (part III).
2. Determination of Equilibrium Solubility (Assuming Chemical Stability in the Desired Solvent is not a Problem).
For each of the three vial samples prepared as described above, in which the amount of compound was totally dissolved, the following procedure was subsequently carried out: • a) A small amount (approx. 0.1 mg) of additional solid compound was added to the vial to maintain an excess of the compound in the mixture in the form of undissolved solid. • b) The samples were magnetically stirred for 24 hr. If required, additional solid compound (0.1 mg) was added to maintain excess of it and then the samples were stirred again. • c) Then the samples were filtered (Millipore Milex filters nylon 0.2 um) and three aliquots were taken (one from each of the three vials) and analysed by LC-MS. • d) The pH of the final solution in each sample was measured with a pH-meter (WTW pH330i and a pH-electrode Sentix 41).
3. LC-MS Assay for Analytical Quantification
All filtered aliquots were analysed by LC-MS. The analysis was carried out with a Luna 5 μC18 (2) column 4.6×150 mm, using a HP1100 HPLC instrument interfaced with a Waters ZMD-2000 MS spectrometer. The concentration of the final sample as prepared above was calculated from that of a reference calibration curve obtained from serial dilutions of a 2 mM solution of the compound under investigation in DMSO (Aldrich cat. ref.: 27685-5) stock solution.
The analysis of all LC-MS data was performed with MassLynx 3.4 software. Statistical and graphic analysis of data was performed using Microsoft Excel. The concentration (uM) and solubility (ug/ml) for each compound was calculated using the peak areas from the sample and those from the calibration curve.
A) FaSSIF is a solvent which simulates the Fasted State of the Intestinal Fluid. (FaSSIF: Fasted State Simulated Intestinal Fluid).
B) FeSSIF is a solvent which simulates the Fed State of the Intestinal Fluid. (FeSSIF: Fed State Simulated Intestinal Fluid).
C) Solubility at pH 7.4 was determined in phosphate buffered saline (PBS) (Fluka cat. ref: 79383)
D) Solubility at pH 1.0 was determined in 0.1N HCl solution (Scharlau AL0744010C)
E) Solubility at pH 4.5 was determined in sodium citrate 0.5M solution. (Aldrich 25, 127-5)

[3] = 0.1N HCl solution, simulated gastric fluid, pH 1 (HCl), read-out: Solubility at pH 1 (HCl)
[4] = FaSSIF (fasted state simulated intestinal fluid), fassif, read-out: Solubility in FaSSIF
[5] = phosphate buffered saline (PBS), aqueous buffer, pH 7.4 (PBS), read-out: Solubility at pH 7.4 (PBS)
[6] = sodium citrate 0.5M solution, aqueous buffer, pH 4.5 (Na citrate), read-out: Solubility at pH 4.5 (Na citrate)

Structure (SMILES) | IC50 [1] | solubility at 24 h [2, 3] | solubility at 24 h [2, 4] | solubility at 24 h [2, 5] | solubility at 24 h [2, 6] | solubility at 24 h ([2]; FeSSIF (fed state simulated intestinal fluid), fessif, read-out: Solubility in FeSSIF) | solubility at 24 h ([2]; aqueous buffer, pH 4.5 (Na citrate), read-out: Solubility at pH 4.5 (Na citrate)) | solubility at 24 h ([2]; aqueous buffer, pH 7.4 (PBS), read-out: Solubility at pH 7.4 (PBS)) | solubility at 24 h ([2]; fassif, read-out: Solubility in FaSSIF) | solubility at 24 h ([2]; simulated gastric fluid, pH 1 (HCl), read-out: Solubility at pH 1 (HCl))
Cc1[nH]c(C)c(-c2ccc(OCc3ccc(C(F)(F)F)cc3)nc2)c(=O)c1Cl [Example 10, 5-Chloro-2,6-dimethyl-6′-{[4-(trifluoromethyl)benzyl]oxy}-3,3′-bipyridin-4(1H)-one] | < 0.125 µg/mL |  |  |  |  |  | < 1 µg/mL | < 1 µg/mL | < 1 µg/mL | 5 to 10 µg/mL (≈ 12.2 to 24.5 µM)
Cc1[nH]c(C)c(-c2ccc(-c3ccc(C(F)(F)F)cc3)nc2)c(=O)c1Br [Example 16, 5-Bromo-2,6-dimethyl-6′-{4-[trifluoromethyl]phenyl}-3,3′-bipyridin-4(1H)-one] | < 0.125 µg/mL | 10 to 50 µg/mL (≈ 23.6 to 118 µM) | < 1 µg/mL | < 1 µg/mL | < 1 µg/mL |  |  |  |  | 
Cc1[nH]c(C)c(-c2ccc(-c3cccc(C(F)(F)F)c3)nc2)c(=O)c1Br [Example 17, 5-Bromo-2,6-dimethyl-6′-{3-[trifluoromethyl]phenyl}-3,3′-bipyridin-4(1H)-one] | < 0.125 µg/mL | ≥ 50 µg/mL | 1 to 5 µg/mL (≈ 2.36 to 11.8 µM) | < 1 µg/mL | < 1 µg/mL |  |  |  |  | 

The next lines start with results.

IC50 [1] | solubility at 24 h [2, 3] | solubility at 24 h [2, 4] | solubility at 24 h [2, 5] | solubility at 24 h [2, 6] | solubility at 24 h ([2]; FeSSIF (fed state simulated intestinal fluid), fessif, read-out: Solubility in FeSSIF) | Structure (SMILES) | solubility at 24 h ([2]; aqueous buffer, pH 4.5 (Na citrate), read-out: Solubility at pH 4.5 (Na citrate)) | solubility at 24 h ([2]; aqueous buffer, pH 7.4 (PBS), read-out: Solubility at pH 7.4 (PBS)) | solubility at 24 h ([2]; fassif, read-out: Solubility in FaSSIF) | solubility at 24 h ([2]; simulated gastric fluid, pH 1 (HCl), read-out: Solubility at pH 1 (HCl))
< 0.125 µg/mL | ≥ 50 µg/mL | 10 to 50 µg/mL (≈ 23.6 to 118 µM) | 10 to 50 µg/mL (≈ 23.6 to 118 µM) | 10 to 50 µg/mL (≈ 23.6 to 118 µM) |  | Cc1[nH]c(C)c(-c2ccc(-c3ccccc3C(F)(F)F)nc2)c(=O)c1Br [Example 18, 5-Bromo-2,6-dimethyl-6′-{2-[trifluoromethyl]phenyl}-3,3′-bipyridin-4(1H)-one] |  |  |  | 
< 0.125 µg/mL | 10 to 50 µg/mL (≈ 25.7 to 128 µM) | 1 to 5 µg/mL (≈ 2.57 to 12.8 µM) | 1 to 5 µg/mL (≈ 2.57 to 12.8 µM) | 1 to 5 µg/mL (≈ 2.57 to 12.8 µM) | 5 to 10 µg/mL (≈ 12.8 to 25.7 µM) | Cc1[nH]c(C)c(-c2ccc(-c3ccc(Cl)cc3)nc2)c(=O)c1Br [Example 19, 5-Bromo-6′-(4-chlorophenyl)-2,6-dimethyl-3,3′-bipyridin-4(1H)-one] |  |  |  | 
< 0.125 µg/mL | ≥ 50 µg/mL | < 1 µg/mL | < 1 µg/mL | < 1 µg/mL |  | Cc1[nH]c(C)c(-c2ccc(-c3cccc(Cl)c3)nc2)c(=O)c1Br [Example 20, 5-Bromo-6′-(3-chlorophenyl)-2,6-dimethyl-3,3′-bipyridin-4(1H)-one] |  |  |  | 
< 0.125 µg/mL | ≥ 50 µg/mL | 5 to 10 µg/mL (≈ 12.8 to 25.7 µM) | 1 to 5 µg/mL (≈ 2.57 to 12.8 µM) | 5 to 10 µg/mL (≈ 12.8 to 25.7 µM) |  | Cc1[nH]c(C)c(-c2ccc(-c3ccccc3Cl)nc2)c(=O)c1Br [Example 21, 5-Bromo-6′-(2-chlorophenyl)-2,6-dimethyl-3,3′-bipyridin-4(1H)-one] |  |  |  | 
